Laboratory results reported in patent US12371454B2, “Cyclic peptide compound having Kras inhibitory action” (priority 2019, dated 2025).
Starred links: 1 amine or outer side, 2 acyl side, 3 side chain; linkers in the order of their positions; H or OH if unused. Positions of bridges follow the written chain, without caps; N, C: chain ends. Non-standard residues stand in square brackets, D forms with d. Residues, ends and D or L forms follow the SMILES beside them. *: point of attachment. NMeAbu(3,3-F2-piperidino) = CN[C@@H](CCN1CCCC(F)(F)C1)C(=O)O; hPhe(3-Cl-4-CF3) = N[C@@H](CCc1ccc(C(F)(F)F)c(Cl)c1)C(=O)O; 3Oxa8azabicyclo(3.2.1)octane = C1CC2COCC1N2*; NMeAbu(4,4,4-F3) = CN[C@@H](CC(F)(F)F)C(=O)O; NMePhe(4-Cl) = CN[C@@H](Cc1ccc(Cl)cc1)C(=O)O; NMePhe(3-Me) = CN[C@@H](Cc1cccc(C)c1)C(=O)O; NMePhe(4-Me) = CN[C@@H](Cc1ccc(C)cc1)C(=O)O; NMePhe(3-F) = CN[C@@H](Cc1cccc(F)c1)C(=O)O; NMePhe(4-F) = CN[C@@H](Cc1ccc(F)cc1)C(=O)O; NMedβ3hAla = C[C@H](CC(=O)[*:2])N(C)[*:1]; NMeGly(cPent) = CN[C@H](C(=O)O)C1CCCC1; Phe(3-I) = N[C@@H](Cc1cccc(I)c1)C(=O)O; NMeAla(cPr) = CN[C@@H](CC1CC1)C(=O)O; NMeGly(cBu) = CN[C@H](C(=O)O)C1CCC1; NMeCha = CN[C@@H](CC1CCCCC1)C(=O)O; NMeGly(cPr) = CN[C@H](C(=O)O)C1CC1; NMeCba = CN[C@@H](CC1CCC1)C(=O)O; NMeChg = CN[C@H](C(=O)O)C1CCCCC1; NMeF = CN[C@@H](Cc1ccccc1)C(=O)O; NMeI = CC[C@H](C)[C@H](NC)C(=O)O; NMeD = CN[C@@H](CC(=O)O)C(=O)O; NMeL = CN[C@@H](CC(C)C)C(=O)O; NMeV = CN[C@H](C(=O)O)C(C)C; NMeS = CN[C@@H](CO)C(=O)O; Pip = O=C(O)[C@@H]1CCCCN1; Iva = CC[C@](C)(N)C(=O)O; NMeA = CN[C@@H](C)C(=O)O; Nle = CCCC[C@H](N)C(=O)O; Piperidide = C1CCN(*)CC1; Ac5c = NC1(C(=O)O)CCCC1; Aze = O=C(O)[C@@H]1CCN1; Sar = CNCC(=O)O; Propyl = CCC*

Legend:
[1] = target: T1, Kras and SOS1 (biotin-tagged human Kras loaded with GDP, His-tagged human SOS1) (Homo sapiens, UniProt P01116, G12D); experiment: Protein-protein interaction inhibition between Kras and SOS1 (KrasGl2D-SOS PPI) using AlphaScreen; format: binding; conditions: AlphaScreen; biotin-tagged human Kras loaded with GDP, His-tagged human SOS1; read-out: KRAS G12D-SOS PPI IC50
T1 construct: made in house; host or cells: E. coli (stated for Kras only)
T1 sequence (P01116 1-188 isoform P01116-2 G12D): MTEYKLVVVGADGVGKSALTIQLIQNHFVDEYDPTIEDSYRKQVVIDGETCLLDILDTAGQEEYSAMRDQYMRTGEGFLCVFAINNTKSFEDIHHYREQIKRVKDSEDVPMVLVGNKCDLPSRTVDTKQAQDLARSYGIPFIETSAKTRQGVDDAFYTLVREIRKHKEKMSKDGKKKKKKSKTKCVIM
Procedure, shortened: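 Kras was produced in E. coli, purified, then loaded with GDP. It was paired via streptavidin acceptor beads with His-SOS1 held on nickel donor beads, and proximity signal at 520-620 nm was read after 680 nm illumination.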

[2] = tested on: Human pancreatic cancer cell line AsPC-1; experiment: Measurement of AsPC-1 cell growth inhibition (AsPC-1 CGI); format: cell-based; conditions: 96 h
Procedure, shortened: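 AsPC-1 cells in 15% FBS RPMI-1640 were exposed to test compound for 96 hours at 37° C, with CellTiter-Glo as endpoint.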

Structure (SMILES) | IC50 [1] [nM] | IC50 [2] [nM]
CC[C@H](C)[C@@H]1NC(=O)[C@H](CC(C)C)N(C)C(=O)C[C@@H](C(=O)N(C)C)N(C)C(=O)[C@H](C2CCCC2)N(C)C(=O)C2(CCCC2)NC(=O)[C@H](CCN2CCCC(F)(F)C2)N(C)C(=O)[C@H](CCc2ccc(C(F)(F)F)c(Cl)c2)NC(=O)CN(C)C(=O)[C@H](CC2CCCCC2)N(C)C(=O)[C@@H]2CCN2C(=O)[C@H](C)N(C)C1=O [Compound 910] ([NMeL]I[NMeA][Aze][NMeCha][Sar][hPhe(3-Cl-4-CF3)][NMeAbu(3,3-F2-piperidino)][Ac5c][NMeGly(cPent)][NMeD]-NMe2; lactam N-11) | 4.3 | 100 to 500
CC[C@H](C)[C@@H]1NC(=O)[C@H](CC2CCC2)N(C)C(=O)C[C@@H](C(=O)N2CCCCC2)N(C)C(=O)[C@H](C(C)C)N(C)C(=O)C2(CCCC2)NC(=O)[C@@H]2CCCN2C(=O)[C@H](CCc2ccc(C(F)(F)F)c(Cl)c2)NC(=O)CN(C)C(=O)[C@H](CC2CCCCC2)N(C)C(=O)CN(C)C(=O)CN(C)C1=O [Compound 911] ([NMeCba]I[Sar][Sar][NMeCha][Sar][hPhe(3-Cl-4-CF3)]P[Ac5c][NMeV][NMeD]-Piperidide; lactam N-11) | 4.5 | 100 to 500
CC[C@H](C)[C@@H]1NC(=O)[C@H](CC(C)C)N(C)C(=O)C[C@@H](C(=O)N(C)C)N(C)C(=O)[C@H]([C@@H](C)CC)N(C)C(=O)C2(CCCC2)NC(=O)[C@H](Cc2cccc(C)c2)N(C)C(=O)[C@H](CCc2ccc(C(F)(F)F)c(Cl)c2)NC(=O)CN(C)C(=O)[C@H](Cc2ccc(C)cc2)N(C)C(=O)[C@@H]2CCN2C(=O)[C@H](C)N(C)C1=O [Compound 912] ([NMeL]I[NMeA][Aze][NMePhe(4-Me)][Sar][hPhe(3-Cl-4-CF3)][NMePhe(3-Me)][Ac5c][NMeI][NMeD]-NMe2; lactam N-11) | 12 | 50 to 100
CC[C@H](C)[C@@H]1NC(=O)[C@H](CC(C)C)N(C)C(=O)C[C@@H](C(=O)N(C)C)N(C)C(=O)[C@H](C2CCCC2)N(C)C(=O)C2(CCCC2)NC(=O)[C@H](Cc2ccc(F)cc2)N(C)C(=O)[C@H](CCc2ccc(C(F)(F)F)c(Cl)c2)NC(=O)CN(C)C(=O)[C@H](CC2CCCCC2)N(C)C(=O)[C@@H]2CCN2C(=O)[C@H](C)N(C)C1=O [Compound 920] ([NMeL]I[NMeA][Aze][NMeCha][Sar][hPhe(3-Cl-4-CF3)][NMePhe(4-F)][Ac5c][NMeGly(cPent)][NMeD]-NMe2; lactam N-11) | 15 | 100 to 500
CC[C@H](C)[C@@H]1NC(=O)[C@H](CC(C)C)N(C)C(=O)C[C@@H](C)N(C)C(=O)[C@H](C(C)C)N(C)C(=O)C2(CCCC2)NC(=O)[C@@H]2CCCN2C(=O)[C@H](CCc2ccc(C(F)(F)F)c(Cl)c2)NC(=O)CN(C)C(=O)[C@H](CC2CC2)N(C)C(=O)CN(C)C(=O)CN(C)C1=O [Compound 930] (cyclo([Ac5c][NMeV][NMedβ3hAla][NMeL]I[Sar][Sar][NMeAla(cPr)][Sar][hPhe(3-Cl-4-CF3)]P)) | 39 | 100 to 500
CCCOC[C@H]1C(=O)N(C)CC(=O)N[C@@H](CCc2ccc(C(F)(F)F)c(Cl)c2)C(=O)N2CCC[C@H]2C(=O)NC2(CCCC2)C(=O)N(C)[C@@H](C2CCCCC2)C(=O)N(C)[C@H](C(=O)N2C3CCC2COC3)CC(=O)N(C)[C@@H](CC(F)(F)F)C(=O)N[C@@H]([C@@H](C)CC)C(=O)N(C)CC(=O)N(C)CC(=O)N1C [Compound 943] ([NMeAbu(4,4,4-F3)]I[Sar][Sar][NMeS](Propyl)[Sar][hPhe(3-Cl-4-CF3)]P[Ac5c][NMeChg][NMeD]-{3Oxa8azabicyclo(3.2.1)octane}; lactam N-11) | 0.83 | 100 to 500
CC[C@H](C)[C@@H]1NC(=O)[C@H](CC(C)C)N(C)C(=O)C[C@@H](C)N(C)C(=O)[C@H](C(C)C)N(C)C(=O)[C@](C)(CC)NC(=O)[C@@H]2CCCN2C(=O)[C@H](CCc2ccc(C(F)(F)F)c(Cl)c2)NC(=O)CN(C)C(=O)[C@H](CC2CCCCC2)N(C)C(=O)CN(C)C(=O)CN(C)C1=O [Compound 944] (cyclo(I[Sar][Sar][NMeCha][Sar][hPhe(3-Cl-4-CF3)]P[Iva][NMeV][NMedβ3hAla][NMeL])) | 18 | 100 to 500
CC[C@H](C)[C@@H]1NC(=O)[C@H](C2CCC2)N(C)C(=O)C[C@@H](C(=O)N2CCCCC2)N(C)C(=O)[C@H](C(C)C)N(C)C(=O)C2(CCCC2)NC(=O)[C@@H]2CCCN2C(=O)[C@H](CCc2ccc(C(F)(F)F)c(Cl)c2)NC(=O)CN(C)C(=O)[C@H](CC2CCCCC2)N(C)C(=O)CN(C)C(=O)CN(C)C1=O [Compound 948] ([NMeGly(cBu)]I[Sar][Sar][NMeCha][Sar][hPhe(3-Cl-4-CF3)]P[Ac5c][NMeV][NMeD]-Piperidide; lactam N-11) | 3.1 | 50 to 100
CC[C@H](C)[C@@H]1NC(=O)[C@H](CC(C)C)N(C)C(=O)C[C@@H](C(=O)N(C)C)N(C)C(=O)[C@H]([C@@H](C)CC)N(C)C(=O)C2(CCCC2)NC(=O)[C@H](C)NC(=O)[C@H](CCc2ccc(C(F)(F)F)c(Cl)c2)NC(=O)CN(C)C(=O)[C@H](Cc2ccc(C)cc2)N(C)C(=O)[C@@H]2CCN2C(=O)[C@H](C)N(C)C1=O [Compound 957] ([NMeL]I[NMeA][Aze][NMePhe(4-Me)][Sar][hPhe(3-Cl-4-CF3)]A[Ac5c][NMeI][NMeD]-NMe2; lactam N-11) | 0.44 | 100 to 500
CC[C@H](C)[C@@H]1NC(=O)[C@H](CC(C)C)N(C)C(=O)C[C@@H](C(=O)N(C)C)N(C)C(=O)[C@H]([C@@H](C)CC)N(C)C(=O)C2(CCCC2)NC(=O)[C@H](Cc2ccccc2)N(C)C(=O)[C@H](CCc2ccc(C(F)(F)F)c(Cl)c2)NC(=O)CN(C)C(=O)[C@H](Cc2ccc(C)cc2)N(C)C(=O)[C@@H]2CCN2C(=O)[C@H](C)N(C)C1=O [Compound 958] ([NMeL]I[NMeA][Aze][NMePhe(4-Me)][Sar][hPhe(3-Cl-4-CF3)][NMeF][Ac5c][NMeI][NMeD]-NMe2; lactam N-11) | 2.1 | 20 to 50
CC[C@H](C)[C@@H]1NC(=O)[C@H](CC(C)C)N(C)C(=O)C[C@@H](C(=O)N2CCCCC2)N(C)C(=O)[C@H](CC2CCC2)N(C)C(=O)C2(CCCC2)NC(=O)[C@@H]2CCCN2C(=O)[C@H](CCc2ccc(C(F)(F)F)c(Cl)c2)NC(=O)CN(C)C(=O)[C@H](CC2CCCCC2)N(C)C(=O)CN(C)C(=O)CN(C)C1=O [Compound 968] ([NMeL]I[Sar][Sar][NMeCha][Sar][hPhe(3-Cl-4-CF3)]P[Ac5c][NMeCba][NMeD]-Piperidide; lactam N-11) | 3.1 | 100 to 500
CC[C@H](C)[C@@H]1NC(=O)[C@H](C2CC2)N(C)C(=O)C[C@@H](C(=O)N2CCCCC2)N(C)C(=O)[C@H](C(C)C)N(C)C(=O)C2(CCCC2)NC(=O)[C@@H]2CCCN2C(=O)[C@H](CCc2ccc(C(F)(F)F)c(Cl)c2)NC(=O)CN(C)C(=O)[C@H](CC2CCCCC2)N(C)C(=O)CN(C)C(=O)CN(C)C1=O [Compound 980] ([NMeGly(cPr)]I[Sar][Sar][NMeCha][Sar][hPhe(3-Cl-4-CF3)]P[Ac5c][NMeV][NMeD]-Piperidide; lactam N-11) | 3.8 | 100 to 500
CC[C@H](C)[C@@H]1NC(=O)[C@H](CC2CCCCC2)N(C)C(=O)C[C@@H](C(=O)N2CCCCC2)N(C)C(=O)[C@H](C2CCCCC2)N(C)C(=O)C2(CCCC2)NC(=O)[C@@H]2CCCN2C(=O)[C@H](CCc2ccc(C(F)(F)F)c(Cl)c2)NC(=O)CN(C)C(=O)[C@H](CC2CCCCC2)N(C)C(=O)CN(C)C(=O)CN(C)C1=O [Compound 983] ([NMeCha]I[Sar][Sar][NMeCha][Sar][hPhe(3-Cl-4-CF3)]P[Ac5c][NMeChg][NMeD]-Piperidide; lactam N-11) | 1.8 | 100 to 500
CC[C@H](C)[C@@H]1NC(=O)[C@H](CC(C)C)N(C)C(=O)C[C@@H](C(=O)N2CCCCC2)N(C)C(=O)[C@H](C(C)C)N(C)C(=O)C2(CCCC2)NC(=O)[C@@H]2CCCN2C(=O)[C@H](CCc2ccc(C(F)(F)F)c(Cl)c2)NC(=O)CN(C)C(=O)[C@H](CC2CCCCC2)N(C)C(=O)[C@@H]2CCN2C(=O)[C@@H]2CCCCN2C1=O [Compound 988] ([NMeL]I[Pip][Aze][NMeCha][Sar][hPhe(3-Cl-4-CF3)]P[Ac5c][NMeV][NMeD]-Piperidide; lactam N-11) | 12 | 100 to 500
CCCC[C@@H]1NC(=O)[C@H](Cc2cccc(I)c2)NC(=O)CN(C)C(=O)[C@H](Cc2ccc(Cl)cc2)N(C)C(=O)CN(C)C(=O)CN(C)C(=O)[C@H]([C@@H](C)CC)NC(=O)[C@H](CC(C)C)N(C)C(=O)C[C@@H](C(=O)N2CCCCC2)N(C)C(=O)[C@H](CC(C)C)NC(=O)[C@H](Cc2ccc(F)cc2)N(C)C1=O [Compound 997] ([NMeL]I[Sar][Sar][NMePhe(4-Cl)][Sar][Phe(3-I)][Nle][NMePhe(4-F)]L[NMeD]-Piperidide; lactam N-11) | 24 | 100 to 500
CC[C@H](C)[C@@H]1NC(=O)[C@H](CC(C)C)N(C)C(=O)C[C@@H](C(=O)N(C)C)N(C)C(=O)[C@H]([C@@H](C)CC)N(C)C(=O)C2(CCCC2)NC(=O)[C@H](Cc2cccc(F)c2)N(C)C(=O)[C@H](CCc2ccc(C(F)(F)F)c(Cl)c2)NC(=O)CN(C)C(=O)[C@H](Cc2ccc(C)cc2)N(C)C(=O)[C@@H]2CCN2C(=O)[C@H](C)N(C)C1=O [Compound 1000] ([NMeL]I[NMeA][Aze][NMePhe(4-Me)][Sar][hPhe(3-Cl-4-CF3)][NMePhe(3-F)][Ac5c][NMeI][NMeD]-NMe2; lactam N-11) | 2.6 | 20 to 50
